In patent US5741819A, “Arylsulfonylaminobenzene derivatives and the use thereof as factor Xa inhibitors” (3-Dimensional Pharmaceuticals, Inc., priority 1995, dated 1998):
Where two headings read alike, the source gives them in different places.

Tests used:
Assay type in all cases: biochemical
human plasmin = human plasmin (Homo sapiens, UniProt P00747); assay: In vitro inhibition of purified plasmin (hydrolysis of Tos-Gly-Pro-Lys-pNa); settings: for inhibition at 60 µM: at 60 μM inhibitor
Protocol: (§1) The ability of the compounds of the present invention to act as inhibitors of thrombin, factor Xa and plasmin catalytic activity was assessed by determining the concentration that inhibited enzyme activity by 50% using purified human enzymes. The concentration of added inhibitor that caused a 50% decrease in the initial rate of hydrolysis was defined as the IC50 value.
(§2) All assays are based on the ability of the test compound to inhibit the hydrolysis of a peptide p-nitroanilide substrate. In a typical experiment, appropriate substrate is prepared in DMSO, and diluted into an assay buffer consisting of 50 mM HEPES and 130 mM NaCl at a pH of 7.5. The final concentration for each of the substrates is listed below. All substrate concentrations are at least 10 fold lower than Km to insure inhibition is competitive. Test compounds are prepared as 1 mg/mL solutions in DMSO, and three additional 10-fold dilutions in DMSO are prepared. Enzyme solutions are prepared at the concentrations listed below in assay buffer.
(§3) In a typical IC50 determination, into each well of a 96 well plate is pipetted 280 μL of substrate solution, 10 μL of inhibitor solution, and the plate is allowed to thermally equilibrate at 37° C. in a Molecular Devices Plate Reader for at least 10 minutes. Reactions are initiated by the addition of a 20 μL aliquot of enzyme, and the absorbance increase at 405 nm is recorded for 15 minutes. Data corresponding to less than 10% of the total substrate hydrolysis is used in the calculations. The ratio of the velocity (rate of the change in absorbance as a function of time) for a sample containing no inhibitor is divided by the velocity of a sample containing inhibitor, and is plotted as a function of inhibitor concentration. The inverse of the slope is the concentration of inhibitor which produces a 50% decrease in activity of the enzyme. This concentration is referred to as the IC50.
Plasmin activity was assessed as the ability to hydrolyze the substrate Tos-Gly-Pro-Lys-pNa, and was obtained from Sigma. Substrate solutions were prepared at a concentration of 22 μM (22 μM<<Km =240 μM) in assay buffer. Final DMSO concentration was 0.3%. Purified human plasmin was obtained from Enzyme Research Laboratories Inc, and was diluted into assay buffer to a concentration of 1.2 μM. Final reagent concentrations were: [plasmin]=15 nM, […], [inhibitor]=60 to 0.06 μM.

Factor Xa = biological target: T1, Factor Xa (Homo sapiens, UniProt P00742); assay: In vitro inhibition of purified factor Xa (hydrolysis of Bz-Ile-Glu-Gly-Arg-pNa); settings: purified enzyme, 10 nM factor Xa, 26 μM substrate, pH 7.5, 37° C.
T1 construct: purchased Enzyme Research Laboratories, Inc
T1 sequence (P00742 235-488 limits assumed): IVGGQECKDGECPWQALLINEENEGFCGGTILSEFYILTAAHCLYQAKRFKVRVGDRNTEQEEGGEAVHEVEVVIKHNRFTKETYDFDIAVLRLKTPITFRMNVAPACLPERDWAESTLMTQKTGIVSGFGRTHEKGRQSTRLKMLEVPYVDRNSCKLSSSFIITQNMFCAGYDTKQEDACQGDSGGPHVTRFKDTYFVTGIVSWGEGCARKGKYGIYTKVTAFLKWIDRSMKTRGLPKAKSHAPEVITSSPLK
T1 sequence (P00742 41-179 partner limits assumed): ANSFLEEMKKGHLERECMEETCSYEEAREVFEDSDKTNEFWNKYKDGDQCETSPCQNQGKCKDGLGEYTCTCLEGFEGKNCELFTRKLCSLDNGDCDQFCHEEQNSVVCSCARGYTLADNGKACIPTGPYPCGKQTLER
Protocol: as §1, §2, §3
Factor Xa activity was assessed as the ability to hydrolyze the substrate Bz-Ile-Glu-Gly-Arg-pNa, and was obtained from Sigma. Substrate solutions were prepared at a concentration of 26 μM (26 μM<<Km =1.3 mM) in assay buffer. Final DMSO concentration was 0.3%. Activated factor Xa was obtained from Enzyme Research Laboratories, Inc., and was diluted into assay buffer to a concentration of 1.2 μM. Final reagent concentrations were: [Factor Xa]=10 nM, [Bz-Ile-Glu-Gly-Arg-pNa]=26 μM, [inhibitor]=60to 0.06 μM.

human α-thrombin = human α-thrombin (Homo sapiens, UniProt P00734); assay: In vitro inhibition of purified thrombin (hydrolysis of Bz-Phe-Val-Arg-pNa); settings: for IC50: purified human α-thrombin 36 nM, pH 7.5, 37° C.; for inhibition at 60 µM: at 60 μM inhibitor
Protocol: as §1, §2, §3
Thrombin activity was assessed as the ability to hydrolyze the substrate N-benzoyl-Phe-Val-Arg-p-nitroanilide (Bz-Phe-Val-Arg-pNa), and was obtained from Sigma Chemical Company (St. Louis, Mo.). Substrate solutions were prepared at a concentration of 60 μM (60 μM<<Km =1.2 mM) in assay buffer. Final DMSO concentration was 0.3%. […] Final reagent concentrations were: [thrombin]=36 nM, [Bz-Phe-Val-Arg-pNa]=[…], [inhibitor]=60 to 0.06 μM.

[1] = purified human plasmin 15 nM, pH 7.5, 37° C., read-out: Plasmin Inhibition (IC50)

human plasmin, sequence (P00747 581-810 limits assumed): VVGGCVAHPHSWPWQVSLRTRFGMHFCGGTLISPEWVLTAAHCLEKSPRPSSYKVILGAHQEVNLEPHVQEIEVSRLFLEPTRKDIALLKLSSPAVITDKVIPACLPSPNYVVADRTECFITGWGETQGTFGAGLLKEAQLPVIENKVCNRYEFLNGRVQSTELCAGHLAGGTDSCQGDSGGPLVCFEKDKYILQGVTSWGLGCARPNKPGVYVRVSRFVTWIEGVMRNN
human plasmin, sequence (P00747 97-580 partner limits assumed): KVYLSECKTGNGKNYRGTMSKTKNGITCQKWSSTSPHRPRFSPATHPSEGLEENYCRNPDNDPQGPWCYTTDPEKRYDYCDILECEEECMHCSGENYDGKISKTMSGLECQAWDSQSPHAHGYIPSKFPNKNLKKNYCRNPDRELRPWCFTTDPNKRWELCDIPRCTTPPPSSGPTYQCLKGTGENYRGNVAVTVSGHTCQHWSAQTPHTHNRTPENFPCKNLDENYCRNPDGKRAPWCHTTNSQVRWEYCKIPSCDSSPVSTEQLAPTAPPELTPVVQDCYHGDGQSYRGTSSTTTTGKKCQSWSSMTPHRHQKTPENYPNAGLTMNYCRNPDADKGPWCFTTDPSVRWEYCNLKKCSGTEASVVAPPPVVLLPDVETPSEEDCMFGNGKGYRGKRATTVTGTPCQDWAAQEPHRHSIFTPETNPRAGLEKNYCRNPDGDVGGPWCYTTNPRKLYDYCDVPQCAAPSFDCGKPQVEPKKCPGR

| Structure (SMILES) | IC50 (human plasmin) | IC50 (Factor Xa) | IC50 (human α-thrombin) | inhibition at 60 µM (human plasmin) | inhibition at 60 µM (human α-thrombin) | IC50 (human plasmin; [1]) |
| --- | --- | --- | --- | --- | --- | --- |
| O=C(NCC(O)c1cccc(O)c1)c1cccc(NS(=O)(=O)c2ccc3ccccc3c2)c1 (stereo not drawn) [Compound 14, 3-[(2-Naphthalenylsulfonyl)amino]-N-[2-hydroxy-2-(3'-hydroxyphenyl)ethyl]benzamide] | 86.1 µM | 11.4 µM | 87 µM |  |  |  |
| NCCCCCNC(=O)c1cccc(NS(=O)(=O)c2ccc3ccccc3c2)c1 [Compound 32, 3-[(2-Naphthalenylsulfonyl)amino]-N-(5-aminopentyl)benzamide] |  | 7.6 µM |  | 0% | 0% |  |
| COc1cc(C(O)CNC(=O)c2cccc(NS(=O)(=O)c3ccccc3)c2)ccc1O (stereo not drawn) [Compound 22, 3-[(Phenylsulfonyl)amino]-N-[2-hydroxy-2-(4'-hydroxy-3'-methoxyphenyl)ethyl]benzamide] |  | 20.8 µM | 38.3 µM | 0% |  |  |
| CN(C)c1ccc(CNC(=O)c2cccc(NS(=O)(=O)c3ccc4ccccc4c3)c2)cc1 [Compound 16] |  | 3.2 µM | 52.8 µM | 0% |  |  |
| COc1cc(CNC(=O)c2cccc(NS(=O)(=O)c3ccccc3)c2)ccc1O [Compound 20, 3-[(Phenylsulfonyl)amino]-N-[(4-hydroxy-3-methoxyphenyl)methyl]benzamide] |  | 19.2 µM |  |  | 0% | 5.8 µM |

Second part, the molecule after the results:

| IC50 (human plasmin) | IC50 (Factor Xa) | IC50 (human α-thrombin) | inhibition at 60 µM (human plasmin) | inhibition at 60 µM (human α-thrombin) | IC50 (human plasmin; [1]) | Structure (SMILES) |
| --- | --- | --- | --- | --- | --- | --- |
|  | 16.5 µM |  |  | 0% | 15.2 µM | CN(C)c1ccc(CNC(=O)c2cccc(NS(=O)(=O)c3cccc(N)c3)c2)cc1 [Compound 31, 3-[(3'-Aminophenylsulfonyl)amino]-N-[4'-[(N', N'-dimethylamino)phenyl]methyl]benzamide] |
|  | 2 µM | 294 µM | 0% |  |  | O=C(NCCc1ccccn1)c1cccc(NS(=O)(=O)c2ccc3ccccc3c2)c1 [Compound 27] |
